Assay results as given in patent US20260144829A1, “SYNBIOTIC COMPOSITION, METABOLITES, AND METHOD OF PREVENTING AND TREATING OBESITY-RELATED DISEASE” (priority 2023, published 2026).
“Also recorded” adds a separate entry of the source. Residues, ends and D or L forms follow the SMILES beside them.

These compounds were tested on hepatic gene expression (assay: Hepatic RNA-sequencing of treated mice). Settings: liver.
Assay type: in vivo
Procedure: To obtain a more comprehensive understanding of MTA's potential as an antiobesity molecule, hepatic RNA-sequencing was performed on mice treated with both MTA and B. longum to determine its underlying mechanism for preventing obesity. […] Then, we conducted an in-depth analysis of the regulated genes involved in these biological functions. […] Likewise, overexpression of inhibin beta-A, which is encoded by the Inhba gene, can stimulate mitochondrial energy metabolism and increase energy expenditure.
Bile acids are regarded as important signaling molecules to regulate fatty acid, cholesterol, energy and glucose homeostasis; therefore, enhancing bile acid synthesis may be a strategy to avoid diet-induced obesity. Furthermore, the increased expression of Cyp7a1, which encodes the rate-limiting enzyme in the classic bile acid synthesis pathway, prevents high-fat diet-induced obesity, insulin resistance and atherosclerosis.
For CSC[C@H]1O[C@@H](n2cnc3c(N)ncnc32)[C@H](O)[C@@H]1O [MTA, 5′-s-methyl-5′-thioadenosine], the “expression of Cyp7a1” value was “up-regulated”.

What follows are compounds tested on HepG2 cells (assay: Lipid accumulation assay in uric acid-treated HepG2 cells). Settings: 120 μg/mL uric acid, 24 hours.
Assay type: cell-based
Procedure: The lipid accumulation assay was done. Briefly, HepG2 cells at 70% confluence were incubated in RPMI 1640 medium containing 120 μg/mL uric acid for 24 hours, which was used to increase the lipid accumulation. After being washed by PBS buffer, the cells were maintained in new RPMI 1640 medium containing the metabolites (5.0, 1.0, 0.5, 0.1, and 0.05 μg/mL, the dried metabolites were redissolved in RPMI 164 medium) and 120 μg/mL uric acid for another 24 hours. Cells maintained in pure RPMI 1640 medium were employed as control.
To further identify bioactive metabolites produced by B. longum, we applied a fractionation approach followed by liquid chromatography-mass spectrometry (LC-MS) coupled with in vitro screening strategy (FIG. 2A). Briefly, the extraction method of B. longum BCRC12585 metabolites (that is, B. longum metabolites, or B. longum crude extract) is the same as in Example 2, and then twenty-five fractions derived from B. longum metabolites were prepared by pre-HPLC column, followed by individually testing the anti-lipid accumulation activity with HepG2 cells. […] To identify candidate metabolites from each active fraction, further analysis was performed by using liquid chromatography coupled with high resolution mass spectrometry (LC-MS/MS). […] Collectively, we integrated in vitro, in vivo, and metabolomics data to identify the bioactive metabolites which could be produced by B. longum.
With CSCC[C@H](N)C(=O)O [methionine] the “lipid accumulation in HepG2 cells” value was “significantly inhibited; also recorded: exhibited a lipid-lowering effect”.
With Nc1ncnc2c1ncn2[C@@H]1O[C@H](CO)[C@@H](O)[C@H]1O [adenosine] the “lipid accumulation in HepG2 cells” value was “significantly inhibited”.
In the case of CC(C)[C@H](NC(=O)[C@@H]1CCC(=O)N1)C(=O)O [Pyro-glu-val, pyro-glutamyl-valine] (HELM PEPTIDE1{[Glp].V}$$$$V2.0), the “lipid accumulation in HepG2 cells” value is reported as “significantly inhibited”.
In the case of N[C@@H](CCC(=O)O)C(=O)O [GA, glutamic acid], the “lipid accumulation in HepG2 cells” value is reported as “significantly inhibited”.
For CC(C)[C@H](N)C(=O)O [valine], the “lipid accumulation in HepG2 cells” value was “significantly inhibited”.
For Nc1ncnc2c1ncn2[C@@H]1O[C@H](CO)[C@@H](OP(=O)(O)O)[C@H]1O [3-AMPP, 3-adenosine monophosphate], the “lipid accumulation in HepG2 cells” value was “significantly inhibited”.
With O=C1CC[C@@H](C(=O)O)N1 [PyroGA, pyroglutamic acid] the “lipid accumulation in HepG2 cells” value was “significantly inhibited”.
